Molecules are shown by their SMILES.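 Interpolation was linear, between the two tested concentrations surrounding the appropriate level; five concentrations were tested over 48 hours in 96-well plates. The concentration for 50% growth inhibition is given as GI50. TGI: total growth inhibition.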 Bounds are passed on as bounds.

Some test systems named below: K-562 leukemia; HCC-2998 colon; UACC-257 melanoma; HL-60(TB) leukemia; DMS 273 small cell lung; DMS 114 small cell lung; TK-10 renal; SK-MEL-2 melanoma.
What all share (assay): inhibition of tumour cell growth, NCI panel, 48 h

Regarding `COC(=O)c1c(C)cc2c(c1O)C1(O)C(=O)c3cc4c(c(O)c3C(=O)C1(OC)C(O)C2)C(=O)C=C(NC1OC(C)C(OC)C(O)C1OC)C4=O` (stereo not given), the TGI in the assay on K-562 leukemia was 0.178 µM; in the assay on HCC-2998 colon, 0.28 µM; with UACC-257 melanoma, 0.0357 µM; with HL-60(TB) leukemia, 0.184 µM; with DMS 273 small cell lung it was 0.468 µM; with DMS 114 small cell lung it was 0.0295 µM. The TGI with TK-10 renal turned out to be 0.293 µM; in the assay on SK-MEL-2 melanoma, 0.149 µM.
In the case of `N#CCCN(CCC#N)c1ccc(/C=N\c2nc(-c3ccccc3)cs2)cc1`, the TGI with K-562 leukemia, with UACC-257 melanoma, in the assay with HL-60(TB) leukemia, with DMS 273 small cell lung, in the assay with DMS 114 small cell lung and in the assay on TK-10 renal was above 100 µM each time. For the same compound, the TGI in the assay with SK-MEL-2 melanoma was above 100 µM.
As for `Cn1cnc([N+](=O)[O-])c1SC1=NCCS1`, the TGI with K-562 leukemia, in the assay with HCC-2998 colon, in the assay on UACC-257 melanoma, in the assay on DMS 273 small cell lung, in the assay with TK-10 renal and in the assay on SK-MEL-2 melanoma was above 100 µM throughout.
With `O=C(CC/C(CC(=O)c1ccc(Cl)cc1)=N/O)Nc1ccc(Cl)c(Cl)c1`, the TGI in the assay on K-562 leukemia, in the assay on UACC-257 melanoma, in the assay with HL-60(TB) leukemia, in the assay on DMS 273 small cell lung, with DMS 114 small cell lung and in the assay on TK-10 renal was above 100 µM throughout. This compound displayed a TGI with SK-MEL-2 melanoma above 100 µM.
Consider `O=C1C2C(C(=O)N1c1ccccc1)C1(c3ccccc3)OC2(c2ccccc2)c2ccccc21` (stereo not given), for which the TGI in the assay with K-562 leukemia, in the assay with HCC-2998 colon, in the assay on UACC-257 melanoma, in the assay on HL-60(TB) leukemia, in the assay with DMS 273 small cell lung and with DMS 114 small cell lung was above 100 µM throughout. In addition, the TGI in the assay on TK-10 renal and with SK-MEL-2 melanoma was above 100 µM each time.
Take `Cn1cnc([N+](=O)[O-])c1Sc1nc2cccnc2s1`: the TGI in the assay with HCC-2998 colon came out at 30.9 µM; with UACC-257 melanoma, 27.9 µM; with DMS 273 small cell lung, 57.4 µM; in the assay on DMS 114 small cell lung, 28.5 µM; in the assay with TK-10 renal, 30.3 µM.
For `Cc1cc(Cl)ccc1NC(=O)CC1SC(N)=NC1=O` (stereo not given), the TGI in the assay on K-562 leukemia, in the assay with HCC-2998 colon, in the assay on UACC-257 melanoma, in the assay with HL-60(TB) leukemia, in the assay on DMS 273 small cell lung and in the assay on DMS 114 small cell lung was above 100 µM each time. In addition, the TGI in the assay on TK-10 renal and with SK-MEL-2 melanoma was above 100 µM each time.
With `COCOCc1cc(OCc2ccccc2)c(OC)cc1Br`, the TGI in the assay with K-562 leukemia, in the assay on UACC-257 melanoma, with DMS 273 small cell lung, with TK-10 renal and in the assay on SK-MEL-2 melanoma was above 100 µM each time.
With `Cc1ccc(NC(=O)COC(=O)c2cccc3c(=O)c4ccccc4[nH]c23)cc1`, the TGI in the assay with K-562 leukemia is above 100 µM; with HCC-2998 colon it was above 100 µM; with UACC-257 melanoma, above 100 µM; with HL-60(TB) leukemia, above 100 µM; in the assay on DMS 273 small cell lung it was 94.9 µM; in the assay with DMS 114 small cell lung, above 100 µM. Moreover, the TGI with TK-10 renal was above 100 µM.
Regarding `O=C(Nc1ccc([N+](=O)[O-])cc1C(=O)O)c1ccc([N+](=O)[O-])cc1`, the TGI is 32.3 µM with K-562 leukemia; above 100 µM with HCC-2998 colon; above 100 µM in the assay on UACC-257 melanoma; 56.7 µM with HL-60(TB) leukemia; above 100 µM in the assay on DMS 273 small cell lung; 50.7 µM in the assay with DMS 114 small cell lung. Further, the TGI in the assay with TK-10 renal is above 100 µM; in the assay with SK-MEL-2 melanoma, 92.2 µM.
In the case of `CC1C=CC(C)C2(O)C(=O)NC(O)C12` (stereo not given), the TGI in the assay on K-562 leukemia, in the assay on HCC-2998 colon, in the assay on UACC-257 melanoma, in the assay with HL-60(TB) leukemia, in the assay with DMS 273 small cell lung and in the assay on DMS 114 small cell lung was above 100 µM in each case. Moreover, the TGI with TK-10 renal and in the assay with SK-MEL-2 melanoma was above 100 µM each time.
Take `Cc1ccc([N+](=O)[O-])cc1NC(=O)C(=O)Cc1cc(=O)oc2cc(O)ccc12`: the TGI was above 100 µM in the assay on K-562 leukemia; above 100 µM in the assay on HCC-2998 colon; above 100 µM in the assay with UACC-257 melanoma; above 100 µM with HL-60(TB) leukemia; 36.3 µM in the assay with DMS 114 small cell lung; above 100 µM with TK-10 renal. The same compound displayed a TGI with SK-MEL-2 melanoma above 100 µM.
`Cc1cc(NS(=O)(=O)c2ccc(NC(=O)c3cccc4cc5ccccc5nc34)cc2)no1`: the TGI with K-562 leukemia amounted to 50.6 µM; in the assay with UACC-257 melanoma, 87.6 µM; in the assay with DMS 273 small cell lung, 32.4 µM; in the assay with DMS 114 small cell lung, 49.2 µM; in the assay on TK-10 renal it was 89.3 µM; in the assay with SK-MEL-2 melanoma it was 41.4 µM.
`CCC[CH2][Sn]1([CH2]CCC)[O]C(=O)c2cccc(OC)c2[O]1`: the GI50 was 0.0719 µM with K-562 leukemia; 0.99 µM with HCC-2998 colon; 0.199 µM with UACC-257 melanoma; 0.106 µM in the assay with HL-60(TB) leukemia; 0.569 µM in the assay with DMS 273 small cell lung; 0.196 µM in the assay with DMS 114 small cell lung. For the same compound, the GI50 in the assay with TK-10 renal is 0.316 µM; in the assay with SK-MEL-2 melanoma, 0.156 µM. Further, the TGI is 1.16 µM in the assay with K-562 leukemia; 2.15 µM in the assay with HCC-2998 colon; 0.537 µM in the assay with UACC-257 melanoma; 0.98 µM in the assay on HL-60(TB) leukemia; 1.96 µM in the assay on DMS 273 small cell lung; 0.624 µM in the assay with DMS 114 small cell lung. The TGI in the assay on TK-10 renal amounted to 0.829 µM; in the assay with SK-MEL-2 melanoma, 0.574 µM.
For the compound `Cc1ccc(-c2nc3c(C(=O)NCCN(C)C)cccc3[nH]2)cc1`, the TGI in the assay with K-562 leukemia worked out at 50.5 µM; in the assay with HCC-2998 colon it was 29.4 µM; with UACC-257 melanoma, 27.5 µM; in the assay on HL-60(TB) leukemia it was 34.2 µM; with DMS 273 small cell lung it was 27.1 µM; in the assay on DMS 114 small cell lung it was 26.6 µM. Also, the TGI was determined as 48.9 µM in the assay on TK-10 renal and 32.8 µM with SK-MEL-2 melanoma.
Regarding `COc1ccc(NC(=O)COC(=O)c2cccc3c(=O)c4ccccc4[nH]c23)cc1`, the TGI with K-562 leukemia is 37.2 µM; in the assay on HCC-2998 colon it was above 100 µM; in the assay with UACC-257 melanoma it was 42.7 µM; with HL-60(TB) leukemia, 25.8 µM; in the assay with DMS 114 small cell lung, 37.8 µM; in the assay on TK-10 renal, 42.1 µM.
`O=C1Cc2ccccc2N1c1c(Cl)cccc1Cl`: the TGI was above 100 µM with K-562 leukemia; above 100 µM in the assay with HCC-2998 colon; above 100 µM in the assay with UACC-257 melanoma; 50.8 µM with HL-60(TB) leukemia; 95.4 µM with DMS 114 small cell lung; above 100 µM with TK-10 renal. In the assay on SK-MEL-2 melanoma, the TGI was above 100 µM.
For the compound `CCCCCCCCCCCCCC(=O)OC(/C=C/C(C)C)C(O)C(O)C(OC)C(=O)NC1CCCCNC1=O` (stereo not given), the GI50 with K-562 leukemia was 2.68 µM; with HCC-2998 colon it was 5.64 µM; in the assay on UACC-257 melanoma, 6.37 µM; in the assay on TK-10 renal it was 8.26 µM. Moreover, the TGI in the assay on K-562 leukemia came out at 10.2 µM; in the assay on HCC-2998 colon it was 4.13 µM; in the assay on UACC-257 melanoma it was 6.5 µM; in the assay on HL-60(TB) leukemia it was 10.4 µM; with DMS 273 small cell lung, 2.81 µM; with DMS 114 small cell lung, 3.85 µM. In addition, the TGI with TK-10 renal was determined as 11.6 µM; with SK-MEL-2 melanoma, 6.03 µM.
With `S=P1(c2ccccc2)Nc2ccc(Cl)cc2N1` (stereo not given), the TGI in the assay on K-562 leukemia is above 100 µM; in the assay on HCC-2998 colon, above 100 µM; in the assay with UACC-257 melanoma, above 100 µM; in the assay with HL-60(TB) leukemia it was 57.5 µM; with DMS 273 small cell lung it was above 100 µM; in the assay on DMS 114 small cell lung, above 100 µM. Besides, the TGI in the assay on TK-10 renal and in the assay with SK-MEL-2 melanoma was above 100 µM in each case.
Regarding `CCN(CC)CCC(=O)N1CCc2c([nH]c3ccccc23)C1c1cccnc1` (stereo not given), the TGI with K-562 leukemia, in the assay with HCC-2998 colon, in the assay on UACC-257 melanoma, in the assay on HL-60(TB) leukemia, in the assay on DMS 273 small cell lung and in the assay on DMS 114 small cell lung was above 100 µM each time. The TGI in the assay with TK-10 renal was above 100 µM.
In the case of `CC(=O)OC1(C#N)CC2OC1C1C2N1C(=O)OC(C)(C)C` (stereo not given), the TGI in the assay with K-562 leukemia, in the assay with HCC-2998 colon, with HL-60(TB) leukemia, with DMS 114 small cell lung, in the assay with TK-10 renal and in the assay with SK-MEL-2 melanoma was above 100 µM each time.
On to `COc1ccc(CC2NCCc3cc(OC)c(OC)cc32)cc1` (stereo not given), for which the TGI in the assay with HCC-2998 colon, in the assay on UACC-257 melanoma, in the assay on HL-60(TB) leukemia, in the assay on DMS 273 small cell lung, in the assay on DMS 114 small cell lung and in the assay on TK-10 renal was above 100 µM throughout. The TGI in the assay with SK-MEL-2 melanoma is above 100 µM.
Turning to `CC1CC(=O)C(CC(=O)O)C1C(C(=O)C(=O)Nc1c(C#N)cccc1[N+](=O)[O-])[N+](=O)[O-]` (stereo not given), the TGI with K-562 leukemia, in the assay on HCC-2998 colon, with UACC-257 melanoma, in the assay with HL-60(TB) leukemia, in the assay on DMS 114 small cell lung and in the assay on TK-10 renal was above 100 µM each time. The compound also yielded a TGI with SK-MEL-2 melanoma above 100 µM.
As for `Oc1ccc2c3c1OC1C(=NN=C4CCC5(O)C6Cc7ccc(O)c8c7C5(CCN6CC5CC5)C4O8)CCC4(O)C(C2)N(CC2CC2)CCC314` (stereo not given), the TGI in the assay with K-562 leukemia amounted to 48.2 µM; in the assay on HCC-2998 colon, 52.7 µM; in the assay on UACC-257 melanoma it was 43.1 µM; in the assay with HL-60(TB) leukemia, 39.8 µM; in the assay on DMS 273 small cell lung, 63.9 µM; in the assay on DMS 114 small cell lung it was 44.6 µM. In addition, the TGI in the assay with TK-10 renal was above 70.2 µM; with SK-MEL-2 melanoma it was 18.9 µM.
As for `O=C1CCCC(=O)C1=C(O)CCCCCCCCCCc1ccccc1`, the TGI was above 100 µM with K-562 leukemia; above 100 µM in the assay with HCC-2998 colon; above 100 µM in the assay on UACC-257 melanoma; 35.1 µM in the assay on HL-60(TB) leukemia; above 100 µM in the assay on DMS 273 small cell lung; 53.4 µM with DMS 114 small cell lung. The TGI in the assay on TK-10 renal is above 100 µM; in the assay with SK-MEL-2 melanoma it was 49.1 µM.

The values above are taken from PubChem BioAssay (NCI).
